Data from patent US8557840B2, “Herbicidal compounds” (Syngenta Limited, priority 2008, dated 2013).

Key:
Assay type in all cases: in vivo
test plants = assay: Herbicidal action, post-emergence (Example B2), all test plants, result in words; details: same protocol as Example B2, post-emergence
Method: Seeds of a variety of test species were sown in standard soil in pots. After 8 days cultivation (post-emergence) under controlled conditions in a glasshouse (at 24/16° C., day/night; 14 hours light; 65% humidity), the plants were sprayed with an aqueous spray solution derived from the formulation of the technical active ingredient in acetone/water (50:50) solution containing 0.5% Tween 20 (polyoxyethelyene sorbitan monolaurate, CAS RN 9005-64-5). The test plants were then grown in a glasshouse under controlled conditions in a glasshouse (at 24/16° C., day/night; 14 hours light; 65% humidity) and watered twice daily. After 13 days, the test was evaluated (10=total damage to plant; 0=no damage to plant).

Stellaria media = assay: Herbicidal action, post-emergence, seed trays in climatic chamber (Example B1); details: 1000 g/ha, evaluated after 9 days, 10=total damage to plant, 0=no damage to plant
Method: (§1) Seeds of a variety of test species were sown in sterilised standard soil in seed trays each having 96 cells. […] The plants were grown in the climatic chamber after application at (24/19° C., day/night; 13 hours light; 50-60% humidity) and watered twice daily. After 9 days until the test was evaluated (10=total damage to plant, 0=no damage to plant)

Solanum nigrum = assay: as above; details: 1000 g/ha, evaluated after 9 days, 10=total damage to plant, 0=no damage to plant
Method: as §1

Amaranthus retroflexus = assay: as above; details: 1000 g/ha, evaluated after 9 days, 10=total damage to plant, 0=no damage to plant
Method: as §1

Nasturtium officinale = assay: as above; details: 1000 g/ha, evaluated after 9 days, 10=total damage to plant, 0=no damage to plant
Method: as §1

SMILES	damage to the test plants (test plants)	STEME damage to plant (Stellaria media)	SOLNI damage to plant (Solanum nigrum)	AMARE damage to plant (Amaranthus retroflexus)	NAAOF damage to plant (Nasturtium officinale)
Cn1c(=O)c(-c2c(F)ccc(F)c2Cl)c(OC(=O)C(C)(C)C)c2cc(Br)cnc21 [D13, 2,2-dimethyl-propionic acid 6-bromo-3-(2-chloro-3,6-difluoro-phenyl)-1-methyl-2-oxo-1,2-dihydro-[1,8]naphthyridin-4-yl ester]	little or no damage				
Cc1cc2c(c(Cl)n1)c(OC(=O)C(C)(C)C)c(-c1c(F)ccc(F)c1Cl)c(=O)n2C [B5]	little or no damage				
CCn1c(=O)c(-c2c(F)ccc(F)c2Cl)c(OC(=O)C(C)(C)C)c2cnccc21 [B1, 2,2-dimethyl-propionic acid 3-(2-chloro-3,6-difluoro-phenyl)-1-ethyl-2-oxo-1,2-dihydro-[1,6]naphthyridin-4-yl ester]	little or no damage				
O=c1[nH]c2cccnc2c(O)c1-c1cccnc1 [A7]		6	0	0	2
CCc1cc(C)cc(CC)c1-c1c(OC(=O)C(C)C)c2ncccc2n(C)c1=O [A6]		8	6	3	6
CC(C)C(=O)Oc1c(-c2c(F)ccc(F)c2Cl)c(=O)n(C)c2cccnc12 [A4]		4	4	5	6
CCc1cc(C)cc(CC)c1-c1c(OC(=O)C(C)(C)C)c2cccnc2n(C)c1=O [D8]		2	0	0	3
CC(C)C(=O)Oc1c(-c2c(F)ccc(F)c2Cl)c(=O)n(C)c2ncccc12 [D7]		3	0	6	0
Cc1cc(Cl)c2c(OC(=O)C(C)(C)C)c(-c3c(F)ccc(F)c3Cl)c(=O)n(C)c2n1 [D19]	little or no damage				
CCc1cc(C)cc(CC)c1-c1c(O)c2cccnc2n(C)c1=O [D20, 3-(2,6-diethyl-4-methyl-phenyl)-4-hydroxy-1-methyl-1H-[1,8]naphthyridin-2-one]		5	0	0	5
O=c1[nH]c2cccnc2c(O)c1-c1ccc(Cl)cc1Cl [A1]		0	0	0	2
O=c1[nH]c2cccnc2c(O)c1-c1ccccc1OC(F)(F)F [A2]		3	0	0	0
CCc1cc(C)cc(CC)c1-c1c(OC(=O)C(C)C)c2cccnc2n(C)c1=O [D6, isobutyric acid 3-(2,6-diethyl-4-methyl-phenyl)-1-methyl-2-oxo-1,2-dihydro-[1,8]naphthyridin-4-yl ester]		2	0	0	0
Cn1c(=O)c(-c2c(F)ccc(F)c2Cl)c(O)c2ncccc21 [A3]		3	3	6	4
CC(C)(C)C(=O)Oc1c(-c2c(F)ccc(F)c2Cl)c(=O)[nH]c2ncncc12 [E1]	little or no damage				
Cn1c(=O)c(-c2c(F)ccc(F)c2Cl)c(O)c2cccnc21 [D5]		7	0	7	6
Cn1c(=O)c(-c2c(F)ccc(F)c2Cl)c(OC(=O)C(C)(C)C)c2ncccc21 [A5]		0	7	0	3
